The nature of this series: gradient 5% acetonitrile 3 min, to 50% in 2 min, to 85% in 15 min, held 3 min, 100 µL/min. Conditions: column: Zorbax Extend-C18 2.1 x 50 mm; eluents: water / acetonitrile, 0.1% formic acid. The method in brief:
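Standards, all pure, were combined into mixtures of ~100 molecules and run at 100 μL/min on a Zorbax Extend-C18 column (2.1 × 50 mm, 1.8 μm) with water and acetonitrile, each containing 0.1% formic acid. A coupled quadrupole time-of-flight mass spectrometer operated in positive and negative ionization mode. Retention time values come from computationally picked adduct peaks, each inspected manually.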
`O=C1CC(c2noc(CN3CCN(c4ccccn4)CC3)n2)CN1c1ccc(F)cc1` (stereo unspecified) registered an RP-LC retention time of 576 s. Take `COc1ccc2c(c1)[C@H]1OCCC[C@H]1C(c1ccc(C(=O)O)cc1)N2` (stereo partly specified): the RP-LC retention time turned out to be 820 s. Then `O=C(c1csc(N2CCCC2)n1)N1CCCC1`, with 657 s; and `Cn1c(=O)c2c(NC(=O)c3ccco3)ccnc2n(C)c1=O`, with 757 s. With `O=C(NCc1ccco1)C1CCN(c2nnc3ccc(C(F)(F)F)cn23)CC1` the figure was 715 s; with `Cc1ccc(Cl)cc1N(C)C(=O)Cn1ccc2c(=O)n(C)c(=O)n(C)c21`, 738 s; with `CCn1c(C(=O)NC(C)CCc2ccco2)cc2sc(Cl)cc21` (stereo unspecified), 738 s. With `O=C(NCc1ccc(Br)cc1)C1CCCN(c2nccnc2Sc2ccccc2)C1` (stereo unspecified), the RP-LC retention time stood at 1110 s. Take `CCCNC(=O)C(=O)NCC(c1ccc2c(c1)OCO2)N1CCOCC1` (stereo unspecified): the RP-LC retention time worked out at 595 s.

As to `CCN(CCCNC(=O)C1CCCN(c2ncnc3c2nc2n3CCCCC2)C1)Cc1ccccc1` (stereo unspecified), the RP-LC retention time came to 623 s.

Regarding `Cc1nnc(-c2cc(NC(=O)Cc3c(F)cccc3Cl)c(C)s2)o1`, the RP-LC retention time worked out at 886 s. With `Cc1sc(-c2cc(C(F)(F)F)[nH]n2)cc1S(=O)(=O)N1CCN(c2cccc(Cl)c2)CC1` the figure was 1230 s; with `O=C(c1ccc2nc(N3CCOCC3)sc2c1)N1CCN(c2ccccn2)CC1`, 563 s; with `O=C(NCCCn1nc(-c2ccco2)ccc1=O)Nc1ccc2c(c1)OCO2`, 678 s.

`O=C(CSc1cc(-c2ccc(F)cc2)ncn1)NCc1ccc2c(c1)OCO2` had an RP-LC retention time of 825 s. On to `COc1ccc(S(=O)(=O)N2CCC(c3noc(-c4ccccc4)n3)CC2)cc1Cl`, for which the RP-LC retention time was 1140 s.

`CCc1cccc(N2C(=O)c3c(C(=O)OC)ncn3CC2(C)C(=O)NC2CCCC2)c1` (stereo unspecified): the RP-LC retention time was 615 s. With `Cc1ccn2cc(-c3ccc(NS(=O)(=O)c4ccccc4F)cc3)nc2n1` the figure was 636 s. With `O=C(CN1CCN(Cc2ccccc2F)C1=O)NCCc1cccs1` the figure was 778 s; with `CN1C(=O)CCC2(CNC(=O)Nc3ccccc3)CCC=C12` (stereo unspecified), 721 s.

`CNC(=O)[C@@H]1C[C@H](Oc2ccccc2)CN1C(=O)C1CC=CC1` returned an RP-LC retention time of 710 s. Then `O=C(NC1CCCC1)c1ccc(-c2cccs2)nc1`, with 849 s; and `Cc1ccc(Cn2c(=O)n(CCNC(=O)C3CCOC3)c3ncccc32)cc1` (stereo unspecified), with 710 s. Then `O=C(NC1CC1)c1ccc(OCC2CCCN(C(=O)C3CC3)C2)cc1` (stereo unspecified), with 718 s.

For the compound `CC1CCCCN1CCCNC(=O)CCC(=O)N1CCc2c(c(C(=O)N3CCCC3)nn2C)C1` (stereo unspecified), the RP-LC retention time came to 586 s. For the compound `Cc1c(-c2ccccc2)nc2ccc(Br)cc2c1C(=O)O`, the RP-LC retention time is 698 s.

In the case of `COc1cc(NC(=O)CN2CC(C)Sc3ccccc32)cc(OC)c1` (stereo unspecified), the RP-LC retention time worked out at 971 s.

The compound `O=c1ccn(-c2ccc(Cl)cc2)nc1-c1nc(-c2ccc(F)c(Br)c2)no1` registered an RP-LC retention time of 1080 s.

Compound `CCC(C)C(NC(=O)c1cc(OC)c(OC)c(OC)c1)C(=O)Nc1nc2ccccc2[nH]1` (stereo unspecified) yielded an RP-LC retention time of 725 s.

Turning to `CC(C)C(NC(=O)Nc1ccc2c(c1)OCCO2)C(=O)N1CCc2ccccc21` (stereo unspecified), the RP-LC retention time was 609 s. `Cn1nc(-c2nnc(-c3ccc(F)cc3)o2)c2c1CCN(S(=O)(=O)c1cccc(F)c1)C2` displayed an RP-LC retention time of 963 s. Then `CCOC(=O)c1cnc2nc(-c3ccccc3)nn2c1C`, with 917 s. Then `Cc1nc(-c2ccc(N3CCN(C(=O)COc4ccccc4)CC3)nc2)sc1C`, with 851 s. `CCCNC(=O)Cn1c(C)nc2ccccc21` returned an RP-LC retention time of 571 s. The compound `O=C(Nc1ccc2c(c1)OCCO2)c1cc(-c2ccncc2)n[nH]1` returned an RP-LC retention time of 606 s. With `CCN(CC)S(=O)(=O)c1ccc2c(c1)CC(C(=O)NCCN1CCCCC1)N2C(C)=O` (stereo unspecified) the figure was 610 s. The compound `C=CCn1nc2ccc(S(=O)(=O)N3CCCCC3)cn2c1=O` yielded an RP-LC retention time of 778 s. The compound `COc1ccc(-c2noc(CN3C(=O)COc4ccc(C(C)(C)C)cc43)n2)cc1OC` yielded an RP-LC retention time of 1120 s.

In turn, `CCn1cc(S(=O)(=O)NCc2ccc(C)cc2)c2cccnc21` came in with an RP-LC retention time of 900 s. With `Cc1ccccc1-c1cn(CC(=O)NCc2ccc(F)c(Cl)c2)nc1N1CCOCC1` the figure was 920 s; with `CCS(=O)(=O)N1CCCN(c2ccc(=O)n(-c3ccc(C)cc3)n2)CC1`, 751 s; with `CC(C)c1noc(-c2cc(=O)n(CC(=O)NCc3cccs3)c3ccccc23)n1`, 933 s. With `O=C(c1ccc2cc[nH]c2c1)N1CCN(C(=O)c2nnn3c2COC(c2ccccc2)C3)CC1` (stereo unspecified) the figure was 773 s; with `Cc1cc(C)cc(NC(=O)Cn2nc3n(c2=O)CCCCC3)c1`, 703 s; with `COc1ccc(NC(=O)N2CCc3c(c(=O)c4cc(C)cc(C)c4n3C)C2)cc1OC`, 628 s. `COc1ccccc1N1CCN(S(=O)(=O)c2cc(-c3cc(C(F)(F)F)on3)cs2)CC1` returned an RP-LC retention time of 1200 s. On to `CC(C)(C)C(O)CCNC(=O)C1(c2ccc(F)cc2)CC1` (stereo unspecified), for which the RP-LC retention time was found to be 823 s.

On to `Cc1ccc(C2=NC3(CCN(C(=O)Cc4cccs4)CC3)ON2)cc1`, for which the RP-LC retention time turned out to be 829 s. On to `COCCn1cc(CCNC(=O)Nc2ccc(C)cc2Cl)c2cccnc21`, for which the RP-LC retention time is 790 s. Take `Cc1ccc(-c2noc(CN3C(=O)COc4ccccc43)n2)cc1`: the RP-LC retention time worked out at 1030 s. As to `CCCN1C(=O)COc2ccc(-c3noc(-c4cccc(Cl)c4)n3)cc21`, the RP-LC retention time was 1350 s. Compound `CNc1nc(Nc2ccccc2)nc2ccccc12` came in with an RP-LC retention time of 633 s.

Regarding `COC(=O)c1c(C)[nH]c(C(=O)N2CCC(CC(=O)NC3CCCCCC3)CC2)c1C`, the RP-LC retention time came to 794 s. Compound `CC(C)C(=O)Nc1ccc(C2(C(=O)N(C)Cc3ccccc3)CCCCC2)cc1` came in with an RP-LC retention time of 1080 s. Then `COc1ccc(-c2cnn3c(C)cc(C)nc23)cc1S(=O)(=O)NC(C)c1ccccc1` (stereo unspecified), with 1010 s; and `CCc1ccc(NC(=O)N2C[C@@H](F)C[C@H]2C(=O)N2CCc3ccccc3C2)cc1`, with 887 s.

Compound `O=C(Cn1cc(-c2ccc(F)cc2)oc1=O)NCc1ccc(N2CCCCC2)cc1` returned an RP-LC retention time of 635 s. Then `CC(C)(CO)c1cc2cc(NC(=O)C3(c4ccc5c(c4)OC(F)(F)O5)CC3)c(F)cc2n1C[C@@H](O)CO`, with 1000 s; and `COc1cc(SC)ccc1C(=O)NCCc1c[nH]c2ccc(C)cc12`, with 953 s. As to `Cc1ccn2c(Nc3ccc4c(c3)OCO4)c(-c3ccccc3)nc2c1`, the RP-LC retention time worked out at 690 s.

The compound `CCc1sc(NC(=O)c2cccc(NC(=O)C(CC)CC)c2)nc1-c1ccccc1` returned an RP-LC retention time of 1170 s. Then `c1ccc2c(-c3nc(C4CC4)no3)nnc(NC3CCCCC3)c2c1`, with 775 s; and `COc1ccc2nc(NC3=NCN(CCc4cccs4)CN3)nc(C)c2c1`, with 743 s; and `Cc1nc(-c2ccc3c(c2)n(CC(=O)NC2CCC(C)CC2)c(=O)n3C(C)C)no1` (stereo unspecified), with 897 s. `CCc1nc2cc(N3CCC(C(=O)NC(C)c4ccccc4)CC3)cnc2nc1CC` (stereo unspecified) yielded an RP-LC retention time of 837 s. In turn, `CCc1cccc(NC(=O)N(C)CC2CCOC2)c1` (stereo unspecified) returned an RP-LC retention time of 739 s. Then `CC(=O)Nc1nsc(N2CCCC(C(=O)N3CCN(c4cc(C)ccc4C)CC3)C2)n1` (stereo unspecified), with 843 s; and `O=C(Cn1c(=O)c2cccn2c2ccc(F)cc21)N1CCOCC1`, with 686 s. With `CCc1nnc([C@@H]2CC(F)(F)CN2C(=O)Cn2ccc(C)n2)o1` the figure was 646 s; with `CCCn1cc2c3c(cccc31)CN(C(=O)COc1ccc(F)cc1)CC2`, 1030 s; with `COc1cc(-c2noc(C3CC(=O)N(c4ccc(C)cc4C)C3)n2)cc(OC)c1OC` (stereo unspecified), 938 s.

Regarding `CCn1c(-c2cccc(C(N)=O)c2)nc2cccnc21`, the RP-LC retention time amounted to 591 s.

For the compound `Cc1ccc(CNC(=O)C2CCCN(c3nc4ccccc4n(Cc4ccccc4)c3=O)C2)o1` (stereo unspecified), the RP-LC retention time came out at 1150 s. Then `CCOCCCNC(=O)N1CC(Oc2cccc(-c3nc(C)no3)c2)C1`, with 735 s. With `CCCn1cnc2cc(CNC(=O)C3CCCC3)ccc21` the figure was 590 s. With `O=C(O)Cc1sc(Nc2ccc(F)c(F)c2F)nc1-c1ccccc1` the figure was 977 s.

As to `Cc1nn(CCCC(=O)NCc2ccco2)c(=O)c2nn(-c3ccccc3)c(C)c12`, the RP-LC retention time was 736 s. `CCN1C(=O)c2cccnc2Sc2cc(NC(C)=O)ccc21` gave an RP-LC retention time of 627 s.

The compound `Cc1c(CCC(=O)O)c(C)n2c(nc3ccccc32)c1C#N` registered an RP-LC retention time of 593 s. With `CSc1cccc(NC(=O)Cn2nc3n(c2=O)CCCC3)c1`, the RP-LC retention time was determined as 669 s.

For `C=Cc1ccc(CN2CCCN(c3ncccc3-c3nc(C(C)C)no3)CC2)cc1`, the RP-LC retention time was 785 s.

Source of the values: the METLIN SMRT retention time set (Domingo-Almenara et al. 2019).
